# In article PMC8412337, “Alpha-single chains of collagen type VI inhibit the fibrogenic effects of triple helical collagen VI in hepatic stellate cells” (PLoS ONE, 2021):
# Test system: primary rat HSC
# Experiment: Cell Death Detection ELISA (oligonucleosomal DNA fragments)
# Assay type: cell-based
# Settings: OD of sample divided by OD of 10% FBS group, three independent experiments
# Description: 10^5 cells were seeded in 6-well plates and treated with starving medium or medium plus CI, CVI or 10% FBS. After 24 or 48 h floating and adherent cells were pooled, and lysed with 500 μl of 1% SDS, 10 mM Tris, pH 7.4 (lysis buffer), for 30 min at 4°C. Lysed cells were transferred to 1.5 ml Eppendorf tubes and centrifuged at 13,000 rpm for 20 min, to separate low molecular weight DNA (oligonucleosome-sized fragments derived from apoptotic cells) from high molecular weight DNA (from viable cells). 400 μl of the supernatant containing oligonucleosomes were transferred to another Eppendorf tube and diluted 1:5 with lysis buffer. 100 μl aliquots were used for the Cell Death Detection ELISA, which was performed according to the manufacturer’s instructions (Boehringer Mannheim, Germany). In brief, antibodies against histones were coated onto 96-wells, 100 μl lysate-samples containing oligonucleotides and histones were added and incubated for one hour. After washing, wells were incubated with anti-double strand DNA antibody coupled to peroxidase for one hour. After reaction with peroxidase substrate, absorbance was measured at 405 nm using an ELISA reader. Background values (lysis-buffer alone) were subtracted, and results are shown as enrichment factor [enrichment factor: OD (optical density) of the sample (apoptotic cells) divided by the OD of the corresponding control (viable cells, 10% FBS-group). A defined positive control was prepared using a hypertonic buffer, containing 10 mM Tris, 400 mM NaCl, 5 mM CaCl2 and 10 mM MgCl2, instead of starving medium.
substance,measurement,setting,value
"CVI: Human collagen VI isolated from placentas by pepsin digestion; triple helical, soluble",enrichment factor of oligonucleosomal fragments,after 24 hours,2
same,enrichment factor of oligonucleosomal fragments,after 48 hours,6
